Data taken from PMC11501026, “L-Arginine and asymmetric dimethylarginine (ADMA) transport across the mouse blood-brain and blood-CSF barriers: Evidence of saturable transport at both interfaces and CNS to blood efflux” (PLOS ONE, 2024).
Values joined by “and” are separate entries in the source; they are usually repeats but may differ in a detail not shown here. Equal values may be shown once. Where a name gives a salt, the structure may show the parent alone. Read-outs that look alike come from different tables or passages of the source.

Assays:
Type in all cases: in vivo, mouse
[1] = system: [3H]-ADMA transport across the blood-brain and blood-CSF barriers; assay: self-inhibition, in situ perfusion: [^3H]-ADMA with 100 μM unlabelled ADMA; settings: male, Balb/c, mouse, other: in situ brain perfusion, with unlabelled ADMA 100 µM, 10 mins, Balb/c ♂, 5ml/min
Experimental: (§1) Self-inhibition experiments were also performed. […] Cross-competition experiments were also performed.
(§2) The percentage change in the RTissue uptake values achieved in the absence or presence of an unlabelled inhibitor can be calculated by means of Eq 4.
(§3) %change=RTissue−RInhibition/RTissue×100 Eq 4
(§4) We define RInhibition as the RTissue uptake in the presence of an inhibitor in the artificial plasma.
(§5) A decrease in the uptake of radiolabelled solute in the presence of unlabelled inhibitor is indicative of a saturable influx transport system. Conversely, an increase in the uptake of radiolabelled solute in the presence of unlabelled inhibitor is indicative of a saturable efflux transport system.

[2] = cross-inhibition, in situ perfusion: [^3H]-ADMA with 100 μM unlabelled L-arginine; parameters: uptake into choroid plexus / uptake into frontal cortex / uptake into caudate nucleus / uptake into occipital cortex / uptake into hippocampus / uptake into hypothalamus / uptake into thalamus / uptake into cerebellum: unit not given here; settings: male, Balb/c, mouse, other: in situ brain perfusion, with 100 µM unlabelled L-arginine, 10 mins, Balb/c ♂, 5ml/min
Experimental: as §1, §2, §3, §4, §5

[3] = system: [3H]-ADMA transport across the blood-brain and blood-CSF barriers; assay: as above; parameters: uptake into choroid plexus / uptake into frontal cortex / uptake into caudate nucleus / uptake into occipital cortex / uptake into hippocampus / uptake into hypothalamus / uptake into thalamus / uptake into cerebellum: unit not given here; settings: male, Balb/c, mouse, other: in situ brain perfusion, 10 mins, Balb/c ♂, 5ml/min
Experimental: as §1, §2, §3, §4, §5

[4] = system: [^3H]-ADMA transport across the blood-brain and blood-CSF barriers; assay: as above; parameters: uptake into choroid plexus / uptake into frontal cortex / uptake into caudate nucleus / uptake into occipital cortex / uptake into hippocampus / uptake into hypothalamus / uptake into thalamus / uptake into cerebellum: unit not given here; settings: [3H] ADMA + [14C] Sucrose + 100uM Arg, 10 mins, Balb/c ♂, 5ml/min; individual mice
Experimental: as §1, §2, §3, §4, §5

Kp at 10 min, 62.5 nM ([1]; homogenate, Difference (ADMA minus Sucrose), homogenate, + 100uM un-labelled ADMA, mean): 0.0396
Kp at 10 min, 62.5 nM ([1]; homogenate, [3H] ADMA + [14C] Sucrose + 100uM un-labelled ADMA, individual mice, read-out: uptake, homogenate): 0.0686
Kp at 10 min, 62.5 nM ([1]; homogenate, [3H] ADMA + [14C] Sucrose + 100uM un-labelled ADMA, mean, read-out: uptake, homogenate): 0.0884
Kp at 10 min, 62.5 nM ([1]; hypothalamus, Difference (ADMA minus Sucrose), hypothalamus, + 100uM un-labelled ADMA, mean): 0.0972
Kp at 10 min, 62.5 nM ([1]; hypothalamus, [3H] ADMA + [14C] Sucrose + 100uM un-labelled ADMA, mean, read-out: uptake into hypothalamus): 0.146
Kp at 10 min, 62.5 nM ([1]; pellet, Difference (ADMA minus Sucrose), pellet, + 100uM un-labelled ADMA, individual mice): 0.01
Kp at 10 min, 62.5 nM ([1]; pellet, [3H] ADMA + [14C] Sucrose + 100uM un-labelled ADMA, individual mice, read-out: uptake, pellet): 0.0144
Kp at 10 min, 62.5 nM ([1]; pellet, [3H] ADMA + [14C] Sucrose + 100uM un-labelled ADMA, mean, read-out: uptake, pellet): 0.0179
Kp at 10 min, 62.5 nM ([1]; pituitary gland, Difference (ADMA minus Sucrose), pituitary gland, + 100uM un-labelled ADMA, mean): 0.586
Kp at 10 min, 62.5 nM ([1]; pituitary gland, [3H] ADMA + [14C] Sucrose + 100uM un-labelled ADMA, mean, read-out: uptake into pituitary gland): 0.681
Kp at 10 min, 62.5 nM ([1]; pons, Difference (ADMA minus Sucrose), pons, + 100uM un-labelled ADMA, mean): 0.0724
Kp at 10 min, 62.5 nM ([1]; pons, [3H] ADMA + [14C] Sucrose + 100uM un-labelled ADMA, individual mice, read-out: uptake into pons): 0.102
Kp at 10 min, 62.5 nM ([1]; pons, [3H] ADMA + [14C] Sucrose + 100uM un-labelled ADMA, mean, read-out: uptake into pons): 0.127
Kp at 10 min, 62.5 nM ([1]; supernatant, Difference (ADMA minus Sucrose), supernatant, + 100uM un-labelled ADMA, mean): 0.0316
Kp at 10 min, 62.5 nM ([1]; supernatant, [3H] ADMA + [14C] Sucrose + 100uM un-labelled ADMA, individual mice, read-out: uptake, supernatant): 0.047
Kp at 10 min, 62.5 nM ([1]; supernatant, [3H] ADMA + [14C] Sucrose + 100uM un-labelled ADMA, mean, read-out: uptake, supernatant): 0.0703
Kp at 10 min, 62.5 nM ([1]; thalamus, Difference (ADMA minus Sucrose), thalamus, + 100uM un-labelled ADMA, mean): 0.0727
Kp at 10 min, 62.5 nM ([1]; thalamus, [3H] ADMA + [14C] Sucrose + 100uM un-labelled ADMA, individual mice, read-out: uptake into thalamus): 0.077
Kp at 10 min, 62.5 nM ([1]; thalamus, [3H] ADMA + [14C] Sucrose + 100uM un-labelled ADMA, mean, read-out: uptake into thalamus): 0.117
Kp at 10 min, 62.5 nM ([2]; CSF, [3H] ADMA + [14C] Sucrose + 100uM Arg, mean, read-out: uptake into CSF): 0.162
Kp at 10 min, 62.5 nM ([2]; brain homogenate, Difference (ADMA minus Sucrose), homogenate, + 100uM Arg, mean): 0.0265
Kp at 10 min, 62.5 nM ([2]; brain homogenate, [3H] ADMA + [14C] Sucrose + 100uM Arg, mean, read-out: uptake, homogenate): 0.063
Kp at 10 min, 62.5 nM ([2]; pellet, Difference (ADMA minus Sucrose), pellet, + 100uM Arg, individual mice): 0.00309
Kp at 10 min, 62.5 nM ([2]; pellet, [3H] ADMA + [14C] Sucrose + 100uM Arg, mean, read-out: uptake, pellet): 0.011
Kp at 10 min, 62.5 nM ([2]; supernatant, Difference (ADMA minus Sucrose), supernatant, + 100uM Arg, mean): 0.0204
Kp at 10 min, 62.5 nM ([2]; supernatant, [3H] ADMA + [14C] Sucrose + 100uM Arg, mean, read-out: uptake, supernatant): 0.0475
Kp at 10 min, 62.5 nM ([3]; caudate nucleus, with 100 µM unlabelled L-arginine, Difference (ADMA minus Sucrose), caudate nucleus, + 100uM Arg, mean): 0.0481
Kp at 10 min, 62.5 nM ([3]; caudate nucleus, with 100 µM unlabelled L-arginine, [3H] ADMA + [14C] Sucrose + 100uM Arg, individual mice, read-out: uptake into caudate nucleus): 0.0565
Kp at 10 min, 62.5 nM ([3]; caudate nucleus, with 100 µM unlabelled L-arginine, [3H] ADMA + [14C] Sucrose + 100uM Arg, mean, read-out: uptake into caudate nucleus): 0.0664
Kp at 10 min, 62.5 nM ([3]; cerebellum, with 100 µM unlabelled L-arginine, Difference (ADMA minus Sucrose), cerebellum, + 100uM Arg, mean): 0.0445
Kp at 10 min, 62.5 nM ([3]; cerebellum, with 100 µM unlabelled L-arginine, [3H] ADMA + [14C] Sucrose + 100uM Arg, mean, read-out: uptake into cerebellum): 0.0673
Kp at 10 min, 62.5 nM ([3]; choroid plexus, with 100 µM unlabelled L-arginine, Difference (ADMA minus Sucrose), choroid plexus, + 100uM Arg, individual mice): 0.469
Kp at 10 min, 62.5 nM ([3]; choroid plexus, with 100 µM unlabelled L-arginine, Difference (ADMA minus Sucrose), choroid plexus, + 100uM Arg, mean): 0.471
Kp at 10 min, 62.5 nM ([3]; choroid plexus, with 100 µM unlabelled L-arginine, [3H] ADMA + [14C] Sucrose + 100uM Arg, individual mice, read-out: uptake into choroid plexus): 0.609
Kp at 10 min, 62.5 nM ([3]; choroid plexus, with 100 µM unlabelled L-arginine, [3H] ADMA + [14C] Sucrose + 100uM Arg, mean, read-out: uptake into choroid plexus): 0.616
Kp at 10 min, 62.5 nM ([3]; frontal cortex, with 100 µM unlabelled L-arginine, Difference (ADMA minus Sucrose), frontal cortex, + 100uM Arg, mean): 0.0598
Kp at 10 min, 62.5 nM ([3]; frontal cortex, with 100 µM unlabelled L-arginine, [3H] ADMA + [14C] Sucrose + 100uM Arg, mean, read-out: uptake into frontal cortex): 0.0858
Kp at 10 min, 62.5 nM ([3]; hippocampus, with 100 µM unlabelled L-arginine, Difference (ADMA minus Sucrose), hippocampus, + 100uM Arg, mean): 0.0475
Kp at 10 min, 62.5 nM ([3]; hippocampus, with 100 µM unlabelled L-arginine, [3H] ADMA + [14C] Sucrose + 100uM Arg, mean, read-out: uptake into hippocampus): 0.0608
Kp at 10 min, 62.5 nM ([3]; hypothalamus, with 100 µM unlabelled L-arginine, Difference (ADMA minus Sucrose), hypothalamus, + 100uM Arg, individual mice): 0.0699
Kp at 10 min, 62.5 nM ([3]; hypothalamus, with 100 µM unlabelled L-arginine, Difference (ADMA minus Sucrose), hypothalamus, + 100uM Arg, mean): 0.0777
Kp at 10 min, 62.5 nM ([3]; hypothalamus, with 100 µM unlabelled L-arginine, [3H] ADMA + [14C] Sucrose + 100uM Arg, individual mice, read-out: uptake into hypothalamus): 0.105
Kp at 10 min, 62.5 nM ([3]; hypothalamus, with 100 µM unlabelled L-arginine, [3H] ADMA + [14C] Sucrose + 100uM Arg, mean, read-out: uptake into hypothalamus): 0.11
Kp at 10 min, 62.5 nM ([3]; occipital cortex, with 100 µM unlabelled L-arginine, Difference (ADMA minus Sucrose), occipital cortex, + 100uM Arg, mean): 0.048
Kp at 10 min, 62.5 nM ([3]; occipital cortex, with 100 µM unlabelled L-arginine, [3H] ADMA + [14C] Sucrose + 100uM Arg, mean, read-out: uptake into occipital cortex): 0.0669
Kp at 10 min, 62.5 nM ([3]; pineal gland, with unlabelled L-arginine 100 µM, Difference (ADMA minus Sucrose), pineal gland, + 100uM Arg, mean): 0.613
Kp at 10 min, 62.5 nM ([3]; pineal gland, with unlabelled L-arginine 100 µM, [3H] ADMA + [14C] Sucrose + 100uM Arg, mean, read-out: uptake into pineal gland): 0.915
Kp at 10 min, 62.5 nM ([3]; pituitary gland, with 100 µM unlabelled L-arginine, Difference (ADMA minus Sucrose), pituitary gland, + 100uM Arg, mean): 0.487
Kp at 10 min, 62.5 nM ([3]; pituitary gland, with 100 µM unlabelled L-arginine, [3H] ADMA + [14C] Sucrose + 100uM Arg, mean, read-out: uptake into pituitary gland): 0.6
Kp at 10 min, 62.5 nM ([3]; pons, with 100 µM unlabelled L-arginine, Difference (ADMA minus Sucrose), pons, + 100uM Arg, mean): 0.0483
Kp at 10 min, 62.5 nM ([3]; pons, with 100 µM unlabelled L-arginine, [3H] ADMA + [14C] Sucrose + 100uM Arg, mean, read-out: uptake into pons): 0.0946
Kp at 10 min, 62.5 nM ([3]; thalamus, with 100 µM unlabelled L-arginine, Difference (ADMA minus Sucrose), thalamus, + 100uM Arg, mean): 0.0566
Kp at 10 min, 62.5 nM ([3]; thalamus, with 100 µM unlabelled L-arginine, [3H] ADMA + [14C] Sucrose + 100uM Arg, mean, read-out: uptake into thalamus): 0.0793
uptake into choroid plexus [4]: 0.5896 and 0.666 and 0.4457 and 0.7681
Structure (SMILES): CN(C)C(N)=NCCC[C@H](N)C(=O)O [ADMA, N^G,N^G-dimethylarginine dihydrochloride]
uptake into caudate nucleus [4]: 0.06709 and 0.08883 and 0.04583 and 0.07378
uptake into cerebellum [4]: 0.04812 and 0.06526 and 0.1041 and 0.02606 and 0.09306
uptake into frontal cortex [4]: 0.07007 and 0.07553 and 0.1227 and 0.05236 and 0.1082
uptake into hippocampus [4]: 0.04437 and 0.05436 and 0.09956 and 0.03726 and 0.0687
uptake into hypothalamus [4]: 0.1376 and 0.1261 and 0.09757 and 0.08557
uptake into occipital cortex [4]: 0.04352 and 0.05773 and 0.1002 and 0.05331 and 0.07955
uptake into pituitary gland [4]: 0.3174 and 0.8724 and 1.123 and 0.09502 and 0.5936
uptake into pons [4]: 0.0747 and 0.145 and 0.1344 and 0.05028 and 0.06842
uptake into thalamus [4]: 0.04368 and 0.06682 and 0.145 and 0.05879 and 0.08201
